In the NIST ThermoML archive (doi:10.1016/j.jct.2018.12.026):
Numbers after ± are expanded uncertainties.

Columns and labels:
[1] = Liquid; Ebulliometric method (Recirculating still)
[2] = refractive index (Na D-line) (dimensionless); details: 293.15 K; 101.33 kPa; Liquid; Standard Abbe refractometry

Row | Normal boiling temperature [1] | refractive index [2] | SMILES
1 | 78.40 ± 0.2 °C | 1.3608 ± 0.0009 | CCO [ethanol]
2 | 99.10 ± 0.2 °C | 1.3839 ± 0.0005 | CCOC(=O)CC [ethyl propanoate]
3 | 141.20 ± 0.2 °C | 1.3872 ± 0.0008 | CCC(=O)O [propanoic acid]
4 | 100.00 ± 0.2 °C | 1.333 ± 0.0005 | O [water]
